Measurements published in publication PMC13113287, “Synthesis and Biological Profiling of New 1,2,3,4-Tetrahydrobenzo[h]naphthyridine-Based Hybrids as Dual Inhibitors of β-Amyloid and Tau Aggregation with Anticholinesterase Activity” (Biomolecules, 2026).

Conditions: reference drugs for assay validation; mean ± SD of three experiments in triplicate

SMILES | Experimental Pe (PAMPA-BBB)
CCn1cc(C(=O)O)c(=O)c2cc(F)c(N3CCNCC3)cc21 [Norfloxacin] | 0.8 ± 0.05 10^−6 cm s^−1
CN1C(C(=O)Nc2ccccn2)=C(O)c2ccccc2S1(=O)=O [Piroxicam] | 2.4 ± 0.07 10^−6 cm s^−1
